Results published in patent publication US11135196B1, “Pharmaceutical composition and its use to inhibit membrane ACE2 expression” (priority 2020, dated 2021).

Tests used:
ACE2 receptor [1] = experiment: ACE2 ELISA assay in Human Small Airways Epithelial Cells (SAEC), 6 days; conditions: for decrease of ACE2 expression: FIG. 5A
Procedure: Human Small Airways Epithelial Cells (SAEC), purchased from ATCC, (Manassas, Va., USA) were cultured in Airways Epithelial Cells growth medium (ATCC) in plastic flasks at 37° C. and 5% CO2. For the experiments, the cells (passage 5-7) were plated to collagen-covered 96-well plates in 100 μL/well growth medium and were grown to confluent layer for 4 to 7 days.
For the experiments, cells were supplemented with indicated doses of tested compounds in 100 μL/well of cell growth medium for 6 days with fresh media supplementations every 2 to 3 days. […] Culture plate wells were washed twice with phosphate buffered saline (PBS) and fixed with 3% formaldehyde/0.5% Triton X-100/PBS solution for 1 hour at 4° C., then washed 4 times with PBS. Two-hundred microliter of 1% bovine serum albumin-BSA (Sigma-Aldrich, St. Louis, Mo., USA) in PBS was added and the plate was incubated at 4° C. overnight. Rabbit polyclonal anti-ACE-2 antibodies (Sigma Aldrich, St. Louis, Mo., USA) were added in 100 μL/well 1% BSA/PBS solution for 1.5 hours incubation at room temperature (RT). After 3 wash cycles with 0.1% BSA/PBS wells were supplied with 100 μL/well of anti-rabbit IgG antibodies conjugated with horse radish peroxidase (HRP, Sigma, St. Louis, Mo., USA) for 1 hour at RT. After 3 wash cycles with 0.1% BSA/PBS the HRP activity retained was determined by incubation with 100 μL/well TMB substrate solution (Sigma-Aldrich, St. Louis, Mo., USA) for 20 minutes. at RT, followed by the addition of 50 μL/well of 1N H2504 and optical density measurement at 450 nm with microplate reader (Molecular Devices, San Jose, Calif., USA).
Results are expressed as a percentage of experimental addition—free control (mean±SD, n=6). Non-specific control (wells incubated without anti-ACE2 antibodies) mean value (n=6) was subtracted from all sample values.

ACE2 receptor [2] = experiment: ACE-2 ELISA assay in Human Aortic Endothelial Cells, 7 days supplementation; type: cell-based; conditions: 50-100 mcM, FIG. 1
Procedure: Cell supplementation with ascorbic acid: Cells were supplemented with indicated doses of ascorbic acid (Sigma) in EGM-2 for 7 days with six repetitions for each dose. Experimental medium was changed every 2-3 days with freshly prepared ascorbic acid solution in EGM-2.
Mouse monoclonal anti ACE-2 antibody (Santa Cruz Biotechnology) was added in 100 mcl 1% BSA/PBS for 1.5 h incubation at room temperature (RT). […] After three wash cycles with 0.1% BSA/PBS retained HRP activity was determined by incubation 100 mcl TMB substrate solution (Sigma) for 20 min at RT and addition of 50 mcl of 1N H2SO4 by measuring optical density at 450 nm with micro plate reader (Molecular Devices). Results are expressed as percentage of ascorbate-free Control (mean+/−SD, n=6).

ACE2 protein [3] = experiment: Western blot of ACE2 protein expression in HMEC; conditions: 1.0 mM, 6 days
Procedure: (§2) Human Small Airways Epithelial Cells (SAEC), purchased from ATCC, (Manassas, Va., USA) were cultured in Airways Epithelial Cells growth medium (ATCC) in plastic flasks at 37° C. and 5% CO2. For the experiments, the cells (passage 5-7) were plated to collagen-covered 96-well plates in 100 μL/well growth medium and were grown to confluent layer for 4 to 7 days. Human Microvascular Endothelial Cells isolated from lung (HMEC), purchased from Lonza, (Hayward, Calif., USA) were cultured in EGM-2 MV growth medium (Lonza) in plastic flasks at 37° C. and 5% CO2. […]
(§3) Western blot: SAEC and HMEC were plated on 6-well plates and supplemented with 0.3, 0.6, 0.8, and 1 mM ascorbic acid, respectively. […] The protein concentration was measured by the Dc protein assay (Bio-Rad, Hercules, Calif., USA). Fifty microgram per well of protein was separated on 8% to 16% gradient SDS-PAGE gels (ie, Tris-based electrophoresis using standard Laemmle's method without (3-ME addition to sample buffer) and transferred to a PVDF membrane. Proteins were detected with commercially available anti-ACE-2 monoclonal antibody diluted 1:250 (R&D, Minneapolis, Minn., USA) and anti-β-actin antibody as a loading control (Cell Signaling, Danvers, Mass., USA).

ACE2 mRNA [4] = experiment: qRT-PCR of ACE2 gene expression in HMEC; type: cell-based, human; conditions: 1.0 mM, 6 days, normalised to β-actin
Procedure: (§1) After 6 days, total RNA was isolated using RNeasy Plus Mini Kit (Qiagen, Germantown, Md., USA). Next, 2500 ng of each isolate was transcribed in cDNA using RT^2 HT First Strand Kit (Qiagen, Germantown, Md., USA) and subjected to qRTPCR using specific primers for ACE2 (forward primer, SEQ ID. NO. 1-5′-[…] -3′; and reverse primer, SEQ ID. NO. 2-5′-[…] -3) and β-actin (forward primer, SEQ ID. NO. 3-5′-[…] -3′; and reverse primer, SEQ ID. NO. 4-5′-[…] -3′). The PCR was performed with a QuantiTect SYBR® Green PCR Kit as the source of 2.5 mM Mg2+, deoxynucleotides and HotStarTaq DNA polymerase, in addition to each primer used at a concentration of 0.3 μM in a 50 μL qPCR mixture (Qiagen, Germantown, Md., USA) in a BioRad CFX instrument (BioRad, Hercules, Calif., USA). The qPCR cycler conditions were programmed according to the manufacturer's recommendations and were as follows: an activation step at 95° C. for 15 minutes, 40 cycles of: denaturation at 94° C. for 15 seconds, annealing at 60° C. for 30 seconds, and extension at 72° C. for 30 seconds. To verify the specificity and identity of the qPCR product, melting curve analyses were performed. The amount of β-actin cDNA was used to normalize the sample amounts used for determinations. All samples were tested in duplicate PCR reactions and the mean of the reactions was used for calculating the expression levels.

ACE2 protein [5] = experiment: Western blot of ACE2 protein expression in SAEC; conditions: 1.0 mM, 6 days
Procedure: as §2, §3

ACE2 mRNA [6] = experiment: qRT-PCR of ACE2 gene expression in SAEC; type: cell-based, human; conditions: 1.0 mM, 6 days, normalised to β-actin
Procedure: as §1

SAEC = experiment: Cytotoxic effects on SAEC; type: cell-based, human

## C=CCCCCCCCCC(=O)O [10-undecanoic acid]
ACE2 receptor [1]; concentration not given, FIG. 9
  decrease of ACE2 expression, individual effect: 18%

## CC(=O)N[C@@H](CS)C(=O)O [NAC]
ACE2 receptor [1]; 2 mM
  inhibition of ACE2 expression, used individually: 18%

## O=c1c(O)cc([C@H]2Oc3cc(O)cc(O)c3C[C@H]2O)cc2c([C@H]3Oc4cc(O)cc(O)c4C[C@H]3O)cc(O)c(O)c12 [Theaflavin]
ACE2 receptor [1]; 33 μg/mL and 50 μM respectively, FIG. 10
  inhibition of ACE2 expression, used individually: about 50%

## O=C1O[C@H]([C@@H](O)CO)C(O)=C1O [ascorbic acid]
ACE2 receptor [2]
  suppression of the expression of the ACE2 receptor: over 50%
ACE2 protein [3]
  reduction of ACE2 protein (Western blot): 60%
ACE2 protein [3]; listed as ascorbate
  reduction of ACE2 protein (Western blot): significantly lower
ACE2 mRNA [4]
  ACE2 gene expression decreased by (fold): 0.54 fold
ACE2 protein [5]
  reduction of ACE2 protein (Western blot): 55%
ACE2 protein [5]; listed as ascorbate
  reduction of ACE2 protein (Western blot): significantly lower
ACE2 mRNA [6]
  ACE2 gene expression decreased by (fold): 0.61 fold
ACE2 receptor [1]; 0.6 mM
  decrease of ACE2 expression: about 18%
ACE2 receptor [1]; 1.0 mM
  decrease of ACE2 expression: 27%
ACE2 receptor [1]; 800 mcM, FIG. 4
  decrease of membrane expression of ACE2: 27%

## CCCCCCCCCCCCCCCC(=O)OC[C@H](O)[C@H]1OC(=O)C(O)=C1O [ascorbyl palmitate]
SAEC
  concentrations showing cytotoxic effects: > 100 µM
ACE2 receptor [1]; 75 μM, FIG. 5B
  inhibition of ACE2 expression: 50%

## O=c1cc(-c2ccccc2)oc2cc(O)c(O)c(O)c12 [baicalein]
ACE2 receptor [1]; 25 μM, compared to no ascorbate control, FIG. 7
  inhibition of ACE2 expression, used individually: 75%
